# Results taken from PMC10574351, “First-Row Transition Metal Complexes Incorporating the 2-(2′-pyridyl)quinoxaline Ligand (pqx), as Potent Inflammatory Mediators: Cytotoxic Properties and Biological Activities against the Platelet-Activating Factor (PAF) and Thrombin” (Molecules, 2023).
# Columns and labels:
# [1] = Stability in DMSO monitored by UV-Vis spectroscopy; assay type: physicochemical; settings: ambient temperature, monitored ~1 to 2 h
# Protocol: The UV-Vis spectra of all complexes were recorded in DMSO at ambient temperature, immediately after dissolution, as this is the medium used for the biological assays. The UV-Vis spectrum of 1 will be included in a publication that follows. The relevant spectra of complexes 2, 3, 5 and 6 are shown below in Figure 6 and Figure 7, respectively, while that of complex 7 (concentrated solution) is included in Figure S9.
# The UV-Vis absorption spectra of the light-yellow solutions of complexes 2, 3, 5 and 6 were monitored over a period of ~1 to 2 h (not shown) to ensure stability for the relevant biological assays. […] The electronic spectra of all complexes display four rather identical absorption bands in the range of 259–334 nm that can be attributed to π → π* and n → π* or charge-transfer transitions. These bands display medium to weak molar extinction coefficients and are in the expected region for similar complexes. For the cobalt(II) complex 2, the very low intensity and rather broad absorption, centered at ~680 nm can be attributed to d-d transitions. Also for the copper(II) complex 3, the broad absorption band in the range of 660–870 nm, is attributed to d-d transition.
# [2] = test system: lyso-PAF:acetyl-CoA acetyltransferase (lyso-PAF-AT); test: Lyso PAF-AT activity assay on leukocyte homogenate; assay type: biochemical; settings: rabbit leukocyte homogenate; Figure 9
# Protocol: The experiment on the inhibitory effect of each compound of interest against the washed rabbit platelets (WRPs) aggregation was carried out as per the already described method. The platelets were from male New Zealand white rabbits (about 20), individually housed in stainless steel cages in an air-conditioned room (19 ± 1 °C, 55 ± 5% humidity on a 12/12 h artificial light/dark cycle). Blood samples were drawn from the main ear artery. Microliters of PAF in a final concentration of about 10^–10 M were added to the cuvette of the aggregometer, and the height of the platelet aggregation was monitored. […] Dithiothreitol-insensitive PAF choline phosphotransferase, lyso-PAF:acetyl-CoA acetyltransferase and PAF-acetylhydrolase activity assays were performed on the homogenates of rabbit leukocytes while the activity of lipoprotein-associated phospholipase A2 was assessed on plasma as previously described. […] All results were expressed as mean ± standard deviation (SD). […] Data were analyzed using a statistical software package (SPSS for Windows, 16.0, 2007, SPSS Inc., Chicago, IL, USA) and Microsoft Excel 2007. […]
# The extraction, purification, and determination of the produced in each assay PAF was carried out as previously described. […] PAF bands were scrapped off, and extracted and the amount of PAF was determined by the washed rabbit platelet aggregation assay. […]
# [3] = test system: human lymphocytes cultures; test: Toxicity in healthy cells (human lymphocytes cultures); assay type: cell-based
# [4] = target: T1, Lipoprotein-associated phospholipase A2 (Lp-PLA2) (Oryctolagus cuniculus, UniProt G1SE06); test: Plasma PAF-AH (LpPLA2) activity assay; assay type: biochemical, rabbit; settings: in increased concentrations, Figure 10
# T1 construct: from tissue; host or cells: rabbit plasma
# T1 sequence (G1SE06 22-423): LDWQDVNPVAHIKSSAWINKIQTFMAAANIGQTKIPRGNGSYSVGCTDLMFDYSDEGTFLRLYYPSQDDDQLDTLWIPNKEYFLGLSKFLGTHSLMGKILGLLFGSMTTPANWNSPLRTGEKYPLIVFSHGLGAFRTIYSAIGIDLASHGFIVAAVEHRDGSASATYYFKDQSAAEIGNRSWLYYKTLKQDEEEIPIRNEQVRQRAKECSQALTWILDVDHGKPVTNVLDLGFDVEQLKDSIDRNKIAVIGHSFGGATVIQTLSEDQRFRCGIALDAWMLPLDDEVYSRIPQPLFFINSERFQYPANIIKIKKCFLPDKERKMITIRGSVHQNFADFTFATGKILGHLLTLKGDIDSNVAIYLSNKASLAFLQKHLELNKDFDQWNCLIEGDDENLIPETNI
# Protocol: The experiment on the inhibitory effect of each compound of interest against the washed rabbit platelets (WRPs) aggregation was carried out as per the already described method. The platelets were from male New Zealand white rabbits (about 20), individually housed in stainless steel cages in an air-conditioned room (19 ± 1 °C, 55 ± 5% humidity on a 12/12 h artificial light/dark cycle). Blood samples were drawn from the main ear artery. Microliters of PAF in a final concentration of about 10^–10 M were added to the cuvette of the aggregometer, and the height of the platelet aggregation was monitored. […] Dithiothreitol-insensitive PAF choline phosphotransferase, lyso-PAF:acetyl-CoA acetyltransferase and PAF-acetylhydrolase activity assays were performed on the homogenates of rabbit leukocytes while the activity of lipoprotein-associated phospholipase A2 was assessed on plasma as previously described. […] All results were expressed as mean ± standard deviation (SD). […] Data were analyzed using a statistical software package (SPSS for Windows, 16.0, 2007, SPSS Inc., Chicago, IL, USA) and Microsoft Excel 2007.
# Plasma PAF-AH was determined in rabbit plasma by the trichloroacetic acid precipitation method using [3H] […] The [3H]-acetate released into the aqueous phase was measured on a liquid scintillation counter. […]
compound,measurement,setting,value
"CS(C)=O.[Cl][Cu][Cl].c1ccc(-c2cnc3ccccc3n2)nc1 [Complex 3, [Cu(pqx)Cl2(DMSO)]]",stability of UV-Vis absorption spectra in DMSO,[1],not modified over time
[Fe(pqx)Cl2]2 [Complex 6],stability of UV-Vis absorption spectra in DMSO,[1],not modified over time
[Co(pqx)Cl2(DMF)] [Complex 2],stability of UV-Vis absorption spectra in DMSO,[1],not modified over time
mer-[Cr(pqx)Cl3(H2O)] [Complex 1],inhibition of the specific activity of lyso-PAF-AT,[2],inhibit in a dose-dependent way
same,toxicity in healthy cells,[3],almost inactive (non-toxic)
[Mn(pqx)(H2O)2Cl2]2 [Complex 5],stability of UV-Vis absorption spectra in DMSO,[1],not modified over time
[Ni(pqx)Cl2]2 [Complex 7],inhibition of the specific activity of lyso-PAF-AT,[2],inhibit in a dose-dependent way
same,inhibition of the specific activity of Lp-PLA2,[4],disables the enzymatic activity
"[Cl][Zn][Cl].c1ccc(-c2cnc3ccccc3n2)nc1 [Complex 4, [Zn(pqx)Cl2]]",toxicity in healthy cells,[3],almost inactive (non-toxic)
